Data from patent US20170190671A1, “BIS(ARYL)CATECHOL DERIVATIVES AS HERBICIDES” (E I DU PONT DE NEMOURS AND COMPANY, priority 2014, published 2017).

Experiments:
Format in all cases: in vivo
[1] = tested on: yellow nutsedge (Cyperus esculentus); test: Test C postemergence; conditions: Cyperus, post-emergence, 336 h, Postemergence, scale 0 to 100, read-out: Plant response rating, Nutsedge, Yellow
How it was run: (§1)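 Treatment is preemergence to seeds in a loam and sand soil, or postemergence to plants 2 to 18 cm high in a peat moss-based medium. The compound is delivered in a non-phytotoxic solvent mixture including surfactant. Effects are judged by eye 13 to 15 days later on a 0 to 100 scale.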

[2] = tested on: pigweed (Amaranthus retroflexus); test: Test C postemergence; conditions: Amaranthus retroflexus, post-emergence, 336 h, Postemergence, scale 0 to 100, read-out: Plant response rating, Pigweed
How it was run: as §1

wild oat (Avena fatua) = test: Test C postemergence; conditions: Avena fatua, post-emergence, Postemergence, scale 0 to 100, read-out: Plant response rating, Oat, Wild
How it was run: as §1

[3] = tested on: waterhemp (common waterhemp, Amaranthus rudis); test: Test C postemergence; conditions: Amaranthus tuberculatus, post-emergence, Postemergence, scale 0 to 100, read-out: Plant response rating, Waterhemp
How it was run: as §1

[4] = tested on: chickweed (common chickweed, Stellaria media); test: Test C postemergence; conditions: Stellaria media, post-emergence, Postemergence, scale 0 to 100, read-out: Plant response rating, Chickweed
How it was run: as §1

kochia (Kochia scoparia) = test: Test C postemergence; conditions: Bassia scoparia, post-emergence, Postemergence, scale 0 to 100, read-out: Plant response rating, Kochia
How it was run: as §1

[5] = tested on: galium (catchweed bedstraw, Galium aparine); test: Test C postemergence; conditions: Galium, post-emergence, 336 h, Postemergence, scale 0 to 100, read-out: Plant response rating, Galium
How it was run: as §1

[6] = tested on: winter wheat (Triticum aestivum); test: Test C preemergence; conditions: Triticum aestivum, pre-emergence, 336 h, scale 0 to 100, read-out: Plant response rating, Wheat
How it was run: as §1

[7] = tested on: velvetleaf (Abutilon theophrasti); test: Test C preemergence; conditions: Abutilon theophrasti, pre-emergence, scale 0 to 100, read-out: Plant response rating, Velvetleaf
How it was run: as §1

soybean (Glycine max) = test: Test C preemergence; conditions: Glycine max, pre-emergence, scale 0 to 100, read-out: Plant response rating, Soybean
How it was run: as §1

[8] = tested on: pigweed (Amaranthus retroflexus); test: Test C preemergence; conditions: Amaranthus retroflexus, pre-emergence, 336 h, scale 0 to 100, read-out: Plant response rating, Pigweed
How it was run: as §1

[9] = tested on: johnsongrass (Sorghum halepense); test: Test C preemergence; conditions: Sorghum halepense, pre-emergence, 336 h, scale 0 to 100, read-out: Plant response rating, Johnsongrass
How it was run: as §1

[10] = tested on: morningglory (Ipomoea coccinea); test: Test C preemergence; conditions: Ipomoea, pre-emergence, 336 h, scale 0 to 100, read-out: Plant response rating, Morningglory
How it was run: as §1

[11] = tested on: waterhemp (common waterhemp, Amaranthus rudis); test: Test C preemergence; conditions: Amaranthus tuberculatus, pre-emergence, scale 0 to 100, read-out: Plant response rating, Waterhemp
How it was run: as §1

[12] = tested on: Italian ryegrass (Lolium multiflorum); test: Test C preemergence; conditions: Lolium multiflorum, pre-emergence, 336 h, scale 0 to 100, read-out: Plant response rating, Ryegrass, Italian
How it was run: as §1

[13] = tested on: ragweed (common ragweed, Ambrosia elatior); test: Test C preemergence; conditions: Ambrosia artemisiifolia, pre-emergence, 336 h, scale 0 to 100, read-out: Plant response rating, Ragweed
How it was run: as §1

[14] = tested on: blackgrass (Alopecurus myosuroides); test: Test C preemergence; conditions: Alopecurus myosuroides, pre-emergence, 336 h, scale 0 to 100, read-out: Plant response rating, Blackgrass
How it was run: as §1

[15] = tested on: giant foxtail (Setaria faberii); test: Test C preemergence; conditions: Setaria faberi, pre-emergence, 336 h, scale 0 to 100, read-out: Plant response rating, Foxtail, Giant
How it was run: as §1

[16] = tested on: large (Lg) crabgrass (Digitaria sanguinalis); test: Test C preemergence; conditions: Digitaria sanguinalis, pre-emergence, 336 h, scale 0 to 100, read-out: Plant response rating, Crabgrass, Large
How it was run: as §1

corn (Zea mays) = test: Test C preemergence; conditions: Zea mays, pre-emergence, 336 h, scale 0 to 100
How it was run: as §1

[17] = tested on: oilseed rape (Brassica napus); test: Test C preemergence; conditions: Brassica napus, pre-emergence, scale 0 to 100, read-out: Plant response rating, Oilseed Rape
How it was run: as §1

[18] = tested on: barnyardgrass (Echinochloa crus-galli); test: Test C preemergence; conditions: Echinochloa crus-galli, pre-emergence, read-out: Plant response rating, Barnyardgrass
How it was run: as §1

N#Cc1cccc(Oc2ncc(Cl)cn2)c1Oc1cnc(Cl)cn1 [Compound 32, 2-[(5-chloro-2-pyrazinyl)oxy]-3-[(5-chloro-2-pyrimidinyl)oxy]benzonitrile]
90%: pest or weed control at 62 g/ha ([2]; 62 g ai/ha) | pest or weed control at 16 g/ha (kochia (Kochia scoparia); 16 g ai/ha) | pest or weed control at 31 g/ha (kochia (Kochia scoparia); 31 g ai/ha) | pest or weed control at 62 g/ha (kochia (Kochia scoparia); 62 g ai/ha) | pest or weed control at 125 g/ha (kochia (Kochia scoparia); 125 g ai/ha) | plant injury at 125 g/ha (soybean (Glycine max); 125 g ai/ha, preemergence) | pest or weed control at 125 g/ha ([10]; 125 g ai/ha, preemergence) | pest or weed control at 125 g/ha ([12]; 125 g ai/ha, preemergence) | pest or weed control at 62 g/ha ([14]; 62 g ai/ha, preemergence)
10%: pest or weed control at 31 g/ha ([10]; 31 g ai/ha, preemergence) | pest or weed control at 62 g/ha ([13]; 62 g ai/ha, preemergence) | pest or weed control at 16 g/ha ([13]; Preemergence, 16 g ai/ha) | plant injury at 16 g/ha ([17]; Preemergence, 16 g ai/ha)
100%: pest or weed control at 31 g/ha ([8]; 31 g ai/ha, preemergence) | pest or weed control at 62 g/ha ([8]; 62 g ai/ha, preemergence) | pest or weed control at 125 g/ha ([8]; 125 g ai/ha, preemergence) | pest or weed control at 16 g/ha ([8]; Preemergence, 16 g ai/ha) | pest or weed control at 62 g/ha ([9]; 62 g ai/ha, preemergence) | pest or weed control at 125 g/ha ([9]; 125 g ai/ha, preemergence) | pest or weed control at 31 g/ha ([11]; 31 g ai/ha, preemergence) | pest or weed control at 62 g/ha ([11]; 62 g ai/ha, preemergence) | pest or weed control at 125 g/ha ([11]; 125 g ai/ha, preemergence) | pest or weed control at 16 g/ha ([11]; Preemergence, 16 g ai/ha) | pest or weed control at 62 g/ha ([15]; 62 g ai/ha, preemergence) | pest or weed control at 125 g/ha ([15]; 125 g ai/ha, preemergence) | pest or weed control at 62 g/ha ([16]; 62 g ai/ha, preemergence) | pest or weed control at 125 g/ha ([16]; 125 g ai/ha, preemergence) | pest or weed control at 125 g/ha ([18]; 125 g ai/ha, preemergence, scale 0 to 100)
0%: plant injury at 31 g/ha ([6]; 31 g ai/ha, preemergence) | plant injury at 62 g/ha ([6]; 62 g ai/ha, preemergence) | plant injury at 16 g/ha ([6]; Preemergence, 16 g ai/ha) | pest or weed control at 16 g/ha ([14]; Preemergence, 16 g ai/ha)
70%: pest or weed control at 16 g/ha ([4]; 16 g ai/ha) | pest or weed control at 31 g/ha ([14]; 31 g ai/ha, preemergence)
30%: pest or weed control at 31 g/ha (wild oat (Avena fatua); 31 g ai/ha) | pest or weed control at 62 g/ha (wild oat (Avena fatua); 62 g ai/ha) | pest or weed control at 125 g/ha (wild oat (Avena fatua); 125 g ai/ha)
50%: pest or weed control at 31 g/ha ([12]; 31 g ai/ha, preemergence) | pest or weed control at 125 g/ha ([13]; 125 g ai/ha, preemergence) | pest or weed control at 16 g/ha ([18]; Preemergence, 16 g ai/ha, scale 0 to 100 (0 no effect, 100 complete control))
5%: plant injury at 125 g/ha ([6]; 125 g ai/ha, preemergence) | pest or weed control at 16 g/ha ([7]; Preemergence, 16 g ai/ha) | pest or weed control at 16 g/ha ([12]; Preemergence, 16 g ai/ha) | Corn plant response rating (crop injury, 0 = no effect, 100 = complete kill) at 16 g/ha (corn (Zea mays); Preemergence, 16 g ai/ha)
98%: pest or weed control at 31 g/ha ([15]; 31 g ai/ha, preemergence) | pest or weed control at 31 g/ha ([16]; 31 g ai/ha, preemergence) | pest or weed control at 16 g/ha ([16]; Preemergence, 16 g ai/ha) | pest or weed control at 62 g/ha ([18]; 62 g ai/ha, preemergence, scale 0 to 100)
20%: pest or weed control at 31 g/ha ([1]; 31 g ai/ha) | pest or weed control at 62 g/ha ([1]; 62 g ai/ha) | pest or weed control at 125 g/ha ([1]; 125 g ai/ha) | pest or weed control at 16 g/ha ([10]; Preemergence, 16 g ai/ha) | pest or weed control at 31 g/ha ([13]; 31 g ai/ha, preemergence)
75%: pest or weed control at 62 g/ha ([7]; 62 g ai/ha, preemergence)
85%: pest or weed control at 31 g/ha ([2]; 31 g ai/ha) | pest or weed control at 31 g/ha ([3]; 31 g ai/ha) | pest or weed control at 62 g/ha ([3]; 62 g ai/ha) | pest or weed control at 125 g/ha ([4]; 125 g ai/ha) | pest or weed control at 125 g/ha ([7]; 125 g ai/ha, preemergence) | pest or weed control at 31 g/ha ([9]; 31 g ai/ha, preemergence) | pest or weed control at 16 g/ha ([15]; Preemergence, 16 g ai/ha) | pest or weed control at 31 g/ha ([18]; 31 g ai/ha, preemergence, scale 0 to 100)
80%: pest or weed control at 31 g/ha ([4]; 31 g ai/ha) | pest or weed control at 62 g/ha ([4]; 62 g ai/ha) | pest or weed control at 16 g/ha ([5]; 16 g ai/ha) | pest or weed control at 31 g/ha ([5]; 31 g ai/ha) | pest or weed control at 62 g/ha ([12]; 62 g ai/ha, preemergence)
95%: pest or weed control at 125 g/ha ([2]; 125 g ai/ha) | pest or weed control at 125 g/ha ([3]; 125 g ai/ha) | pest or weed control at 62 g/ha ([5]; 62 g ai/ha) | pest or weed control at 125 g/ha ([5]; 125 g ai/ha) | pest or weed control at 125 g/ha ([14]; 125 g ai/ha, preemergence) | plant injury at 31 g/ha ([17]; 31 g ai/ha, preemergence) | plant injury at 62 g/ha ([17]; 62 g ai/ha, preemergence) | plant injury at 125 g/ha ([17]; 125 g ai/ha, preemergence)
60%: Corn plant response rating (crop injury, 0 = no effect, 100 = complete kill) at 31 g/ha (corn (Zea mays); 31 g ai/ha, preemergence)
55%: plant injury at 16 g/ha (soybean (Glycine max); Preemergence, 16 g ai/ha)
40%: pest or weed control at 31 g/ha ([7]; 31 g ai/ha, preemergence) | pest or weed control at 16 g/ha ([9]; Preemergence, 16 g ai/ha) | pest or weed control at 62 g/ha ([10]; 62 g ai/ha, preemergence)
45%: plant injury at 31 g/ha (soybean (Glycine max); 31 g ai/ha, preemergence) | plant injury at 62 g/ha (soybean (Glycine max); 62 g ai/ha, preemergence)
65%: Corn plant response rating (crop injury, 0 = no effect, 100 = complete kill) at 62 g/ha (corn (Zea mays); 62 g ai/ha, preemergence) | Corn plant response rating (crop injury, 0 = no effect, 100 = complete kill) at 125 g/ha (corn (Zea mays); 125 g ai/ha, preemergence)
